In the kinase profiling compilation of Christmann-Franck et al. (2016):

How the values were obtained:
Assay in all cases: radiometric filter-binding kinase assay, Kinase HotSpot
Conditions in all cases: compound 0.5 µM; ATP 10 µM
AURKA (human) = AURKA (human) (UniProt O14965)
BLK (human) = BLK (human) (UniProt P51451)
BRSK2 (human) = BRSK2 (human) (UniProt Q8IWQ3)
CAMK2B (human) = CAMK2B (human) (UniProt Q13554)
CDK2 CCNA2 (human) = CDK2 CCNA2 (human) (UniProt P24941+P20248)
CDK2 CCNE1 (human) = CDK2 CCNE1 (human) (UniProt P24941+P24864)
CLK1 (human) = CLK1 (human) (UniProt P49759)
CSNK1G2 (human) = CSNK1G2 (human) (UniProt P78368)
DAPK3 (human) = DAPK3 (human) (UniProt O43293)
DCLK2 (human) = DCLK2 (human) (UniProt Q8N568)
EPHB3 (human) = EPHB3 (human) (UniProt P54753)
FES (human) = FES (human) (UniProt P07332)
FYN (human) = FYN (human) (UniProt P06241)
IGF1R (human) = IGF1R (human) (UniProt P08069)
LRRK2 (human) = LRRK2 (human) (UniProt Q5S007)
MAPK10 (human) = MAPK10 (human) (UniProt P53779)
MAPK13 (human) = MAPK13 (human) (UniProt O15264)
MAPK9 (human) = MAPK9 (human) (UniProt P45984)
MAPKAPK3 (human) = MAPKAPK3 (human) (UniProt Q16644)
MET (human) = MET (human) (UniProt P08581)
MINK1 (human) = MINK1 (human) (UniProt Q8N4C8)
NEK2 (human) = NEK2 (human) (UniProt P51955)
NTRK1 (human) = NTRK1 (human) (UniProt P04629)
PRKACG (human) = PRKACG (human) (UniProt P22612)
PRKCB2 (human) = PRKCB2 (human) (UniProt P05771)
PTK2 (human) = PTK2 (human) (UniProt Q05397)
RIPK2 (human) = RIPK2 (human) (UniProt O43353)
ROCK1 (human) = ROCK1 (human) (UniProt Q13464)
ROS1 (human) = ROS1 (human) (UniProt P08922)
RPS6KA2 KD1 KD2 (human) = RPS6KA2 KD1 KD2 (human) (UniProt Q15349)
RPS6KA4 KD2 (human) = RPS6KA4 KD2 (human) (UniProt O75676)
SRPK3 (human) = SRPK3 (human) (UniProt Q9UPE1)
STK10 (human) = STK10 (human) (UniProt O94804)
STK38 (human) = STK38 (human) (UniProt Q15208)
STK39 (human) = STK39 (human) (UniProt Q9UEW8)
TBK1 (human) = TBK1 (human) (UniProt Q9UHD2)
TLK2 (human) = TLK2 (human) (UniProt Q86UE8)
TSSK1B (human) = TSSK1B (human) (UniProt Q9BXA7)
TTK (human) = TTK (human) (UniProt P33981)
TYRO3 (human) = TYRO3 (human) (UniProt Q06418)
ULK3 (human) = ULK3 (human) (UniProt Q6PHR2)
ABL1 (human) = ABL1 (human) (UniProt P00519)

Sequence of MAPK9 (human) (P45984 whole entry, looked up): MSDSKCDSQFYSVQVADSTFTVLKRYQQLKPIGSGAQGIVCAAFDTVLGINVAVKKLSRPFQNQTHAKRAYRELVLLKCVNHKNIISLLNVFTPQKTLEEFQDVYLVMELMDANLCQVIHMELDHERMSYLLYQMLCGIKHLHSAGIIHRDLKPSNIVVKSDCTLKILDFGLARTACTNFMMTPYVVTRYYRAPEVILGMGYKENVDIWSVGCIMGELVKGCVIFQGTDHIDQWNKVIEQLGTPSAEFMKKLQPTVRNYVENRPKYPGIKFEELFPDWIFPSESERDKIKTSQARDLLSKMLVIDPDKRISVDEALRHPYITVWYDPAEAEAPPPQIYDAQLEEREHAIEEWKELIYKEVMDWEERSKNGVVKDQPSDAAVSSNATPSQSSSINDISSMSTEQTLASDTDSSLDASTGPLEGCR
Sequence of CLK1 (human) (P49759 whole entry, looked up): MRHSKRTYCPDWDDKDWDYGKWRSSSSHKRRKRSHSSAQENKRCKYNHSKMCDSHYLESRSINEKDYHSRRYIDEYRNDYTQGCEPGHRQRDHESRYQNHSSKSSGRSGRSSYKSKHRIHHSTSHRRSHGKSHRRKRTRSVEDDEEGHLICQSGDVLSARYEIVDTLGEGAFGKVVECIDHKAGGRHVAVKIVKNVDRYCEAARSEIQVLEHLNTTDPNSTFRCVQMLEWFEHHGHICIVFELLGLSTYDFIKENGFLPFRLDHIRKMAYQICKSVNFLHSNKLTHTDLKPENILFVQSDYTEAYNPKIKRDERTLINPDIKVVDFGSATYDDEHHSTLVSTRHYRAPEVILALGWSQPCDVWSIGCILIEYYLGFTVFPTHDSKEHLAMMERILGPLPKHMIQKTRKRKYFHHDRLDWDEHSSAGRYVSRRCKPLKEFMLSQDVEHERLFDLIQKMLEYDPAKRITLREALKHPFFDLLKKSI
Sequence of NEK2 (human) (P51955 whole entry, looked up): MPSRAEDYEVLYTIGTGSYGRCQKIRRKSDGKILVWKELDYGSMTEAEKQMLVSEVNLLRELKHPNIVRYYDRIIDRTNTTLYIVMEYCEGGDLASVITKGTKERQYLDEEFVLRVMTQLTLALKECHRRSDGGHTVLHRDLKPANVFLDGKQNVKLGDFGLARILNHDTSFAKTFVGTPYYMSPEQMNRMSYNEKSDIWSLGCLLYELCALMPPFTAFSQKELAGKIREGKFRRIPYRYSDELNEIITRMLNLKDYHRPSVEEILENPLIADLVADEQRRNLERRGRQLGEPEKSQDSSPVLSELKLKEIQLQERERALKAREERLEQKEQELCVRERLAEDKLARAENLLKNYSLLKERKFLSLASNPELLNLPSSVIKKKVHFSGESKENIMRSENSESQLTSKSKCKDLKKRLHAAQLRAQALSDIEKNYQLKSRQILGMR
Sequence of STK10 (human) (O94804 whole entry, looked up): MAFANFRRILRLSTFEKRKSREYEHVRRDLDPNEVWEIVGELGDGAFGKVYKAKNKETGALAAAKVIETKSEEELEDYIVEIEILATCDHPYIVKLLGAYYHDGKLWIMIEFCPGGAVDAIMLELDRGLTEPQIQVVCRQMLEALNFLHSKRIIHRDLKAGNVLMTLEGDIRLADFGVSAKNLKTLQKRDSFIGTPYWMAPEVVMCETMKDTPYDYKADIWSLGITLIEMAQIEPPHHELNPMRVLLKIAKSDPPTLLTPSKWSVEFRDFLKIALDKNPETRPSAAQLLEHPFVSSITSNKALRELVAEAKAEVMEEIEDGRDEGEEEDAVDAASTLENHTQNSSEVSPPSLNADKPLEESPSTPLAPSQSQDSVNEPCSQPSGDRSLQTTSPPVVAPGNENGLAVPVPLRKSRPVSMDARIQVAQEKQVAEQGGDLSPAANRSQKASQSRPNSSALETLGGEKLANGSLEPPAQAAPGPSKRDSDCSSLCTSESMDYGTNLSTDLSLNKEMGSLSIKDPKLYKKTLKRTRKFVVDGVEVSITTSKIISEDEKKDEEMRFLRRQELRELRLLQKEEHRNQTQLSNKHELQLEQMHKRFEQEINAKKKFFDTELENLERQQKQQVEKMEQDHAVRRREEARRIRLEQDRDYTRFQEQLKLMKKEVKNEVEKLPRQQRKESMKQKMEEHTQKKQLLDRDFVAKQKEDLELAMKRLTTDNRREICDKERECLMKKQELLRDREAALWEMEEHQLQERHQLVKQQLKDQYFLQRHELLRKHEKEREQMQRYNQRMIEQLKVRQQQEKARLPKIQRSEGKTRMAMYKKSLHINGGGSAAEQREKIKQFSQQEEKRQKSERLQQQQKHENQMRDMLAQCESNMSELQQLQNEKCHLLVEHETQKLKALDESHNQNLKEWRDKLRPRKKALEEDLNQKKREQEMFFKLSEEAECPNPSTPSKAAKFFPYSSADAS
Sequence of IGF1R (human) (P08069 whole entry, looked up): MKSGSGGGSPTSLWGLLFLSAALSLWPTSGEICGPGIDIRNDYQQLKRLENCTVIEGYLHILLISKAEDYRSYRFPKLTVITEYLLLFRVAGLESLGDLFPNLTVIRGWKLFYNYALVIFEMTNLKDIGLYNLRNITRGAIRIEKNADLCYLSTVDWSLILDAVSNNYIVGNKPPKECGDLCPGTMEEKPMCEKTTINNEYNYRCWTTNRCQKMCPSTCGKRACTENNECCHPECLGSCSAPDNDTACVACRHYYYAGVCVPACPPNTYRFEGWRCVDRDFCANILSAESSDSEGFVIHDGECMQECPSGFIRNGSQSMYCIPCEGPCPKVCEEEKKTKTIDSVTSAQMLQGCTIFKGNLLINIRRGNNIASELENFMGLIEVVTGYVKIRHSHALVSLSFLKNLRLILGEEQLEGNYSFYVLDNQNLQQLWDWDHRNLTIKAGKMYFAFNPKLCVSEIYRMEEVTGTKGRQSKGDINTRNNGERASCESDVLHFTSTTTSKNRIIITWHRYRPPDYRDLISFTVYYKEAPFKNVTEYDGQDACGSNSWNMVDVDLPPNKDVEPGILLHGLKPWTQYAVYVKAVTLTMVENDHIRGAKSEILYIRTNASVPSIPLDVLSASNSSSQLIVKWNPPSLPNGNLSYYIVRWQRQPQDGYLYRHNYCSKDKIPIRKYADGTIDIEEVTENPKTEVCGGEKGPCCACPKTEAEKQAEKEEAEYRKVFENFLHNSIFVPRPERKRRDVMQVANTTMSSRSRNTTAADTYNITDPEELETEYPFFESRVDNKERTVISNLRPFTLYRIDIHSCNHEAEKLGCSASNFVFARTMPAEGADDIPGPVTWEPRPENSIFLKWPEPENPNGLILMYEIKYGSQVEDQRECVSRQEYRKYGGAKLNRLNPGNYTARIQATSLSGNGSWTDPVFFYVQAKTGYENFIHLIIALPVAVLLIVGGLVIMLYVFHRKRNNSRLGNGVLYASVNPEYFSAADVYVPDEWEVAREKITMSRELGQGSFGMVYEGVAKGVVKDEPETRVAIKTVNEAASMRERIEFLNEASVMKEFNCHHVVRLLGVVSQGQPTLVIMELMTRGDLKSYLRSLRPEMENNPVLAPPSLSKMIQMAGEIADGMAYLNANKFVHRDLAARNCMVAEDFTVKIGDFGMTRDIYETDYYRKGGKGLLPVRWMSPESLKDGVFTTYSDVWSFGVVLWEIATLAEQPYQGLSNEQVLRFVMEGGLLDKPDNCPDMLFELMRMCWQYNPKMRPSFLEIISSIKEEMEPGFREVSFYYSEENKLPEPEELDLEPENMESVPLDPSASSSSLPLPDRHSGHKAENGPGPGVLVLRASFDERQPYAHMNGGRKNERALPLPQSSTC
Sequence of PRKACG (human) (P22612 whole entry, looked up): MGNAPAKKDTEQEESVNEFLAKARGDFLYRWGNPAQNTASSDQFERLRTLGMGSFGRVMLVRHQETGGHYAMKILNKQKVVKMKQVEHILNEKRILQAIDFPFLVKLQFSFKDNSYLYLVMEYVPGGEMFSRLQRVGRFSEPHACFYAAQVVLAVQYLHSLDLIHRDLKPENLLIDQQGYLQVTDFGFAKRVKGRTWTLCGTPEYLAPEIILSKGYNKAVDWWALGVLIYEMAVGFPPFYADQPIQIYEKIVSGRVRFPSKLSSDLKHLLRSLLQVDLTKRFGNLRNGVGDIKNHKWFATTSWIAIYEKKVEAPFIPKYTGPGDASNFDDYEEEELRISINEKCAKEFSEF
Sequence of BLK (human) (P51451 whole entry, looked up): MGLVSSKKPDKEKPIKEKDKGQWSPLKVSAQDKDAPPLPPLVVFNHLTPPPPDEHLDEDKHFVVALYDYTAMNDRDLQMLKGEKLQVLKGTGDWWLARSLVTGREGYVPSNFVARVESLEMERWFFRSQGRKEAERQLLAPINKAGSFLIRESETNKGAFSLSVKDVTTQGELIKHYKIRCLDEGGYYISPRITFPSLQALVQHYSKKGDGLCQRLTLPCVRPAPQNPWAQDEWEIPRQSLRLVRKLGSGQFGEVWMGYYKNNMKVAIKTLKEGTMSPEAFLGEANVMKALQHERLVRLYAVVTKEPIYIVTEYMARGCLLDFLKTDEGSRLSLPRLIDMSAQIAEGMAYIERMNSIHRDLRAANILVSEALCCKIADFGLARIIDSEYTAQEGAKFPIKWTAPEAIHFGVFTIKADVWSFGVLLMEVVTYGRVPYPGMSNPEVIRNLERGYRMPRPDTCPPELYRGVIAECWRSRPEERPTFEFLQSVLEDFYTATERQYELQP
Sequence of MAPK13 (human) (O15264 whole entry, looked up): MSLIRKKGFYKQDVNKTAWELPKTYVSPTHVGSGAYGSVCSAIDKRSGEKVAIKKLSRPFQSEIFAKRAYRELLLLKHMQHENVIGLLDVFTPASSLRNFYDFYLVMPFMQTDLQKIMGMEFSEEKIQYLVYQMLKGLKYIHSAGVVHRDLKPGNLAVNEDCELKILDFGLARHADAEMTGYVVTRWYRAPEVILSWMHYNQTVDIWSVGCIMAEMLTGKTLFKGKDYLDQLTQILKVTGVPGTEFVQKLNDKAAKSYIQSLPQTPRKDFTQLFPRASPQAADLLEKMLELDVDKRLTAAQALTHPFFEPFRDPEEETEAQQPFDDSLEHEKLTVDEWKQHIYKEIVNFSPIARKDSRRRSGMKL

CNC(=O)c1cc(Oc2ccc(NC(=O)Nc3ccc(Cl)c(C(F)(F)F)c3)cc2)ccn1
residual activity (AURKA (human)): 103% | residual activity (BLK (human)): 99.1% | residual activity (BRSK2 (human)): 103% | residual activity (CAMK2B (human)): 96.7% | residual activity (CDK2 CCNA2 (human)): 99.7% | residual activity (CDK2 CCNE1 (human)): 98.2% | residual activity (CLK1 (human)): 97.7% | residual activity (CSNK1G2 (human)): 88.9% | residual activity (DAPK3 (human)): 92.9% | residual activity (DCLK2 (human)): 102% | residual activity (EPHB3 (human)): 95.5% | residual activity (FES (human)): 104% | residual activity (FYN (human)): 91.6% | residual activity (IGF1R (human)): 94.3% | residual activity (LRRK2 (human)): 106% | residual activity (MAPK10 (human)): 94.2% | residual activity (MAPK13 (human)): 97.5% | residual activity (MAPK9 (human)): 94.8% | residual activity (MAPKAPK3 (human)): 100% | residual activity (MET (human)): 105% | residual activity (MINK1 (human)): 108% | residual activity (NEK2 (human)): 99.3% | residual activity (NTRK1 (human)): 76.1% | residual activity (PRKACG (human)): 100% | residual activity (PRKCB2 (human)): 97.5% | residual activity (PTK2 (human)): 102% | residual activity (RIPK2 (human)): 86.2% | residual activity (ROCK1 (human)): 102% | residual activity (ROS1 (human)): 95.7% | residual activity (RPS6KA2 KD1 KD2 (human)): 93.3% | residual activity (RPS6KA4 KD2 (human)): 97.7% | residual activity (SRPK3 (human)): 88.4% | residual activity (STK10 (human)): 72.4% | residual activity (STK38 (human)): 99.8% | residual activity (STK39 (human)): 95.7% | residual activity (TBK1 (human)): 98.6% | residual activity (TLK2 (human)): 84.8% | residual activity (TSSK1B (human)): 98.7% | residual activity (TTK (human)): 104% | residual activity (TYRO3 (human)): 91.7% | residual activity (ULK3 (human)): 103%

COc1cc2ncnc(Nc3cccc(Cl)c3)c2cc1OC
residual activity (ABL1 (human)): 61.8% | residual activity (AURKA (human)): 93.3% | residual activity (BLK (human)): 68.2% | residual activity (BRSK2 (human)): 96.7% | residual activity (CAMK2B (human)): 91.2% | residual activity (CDK2 CCNE1 (human)): 90.4% | residual activity (CLK1 (human)): 103% | residual activity (CSNK1G2 (human)): 97.1% | residual activity (DAPK3 (human)): 94.6% | residual activity (DCLK2 (human)): 94.7% | residual activity (EPHB3 (human)): 99.1% | residual activity (FES (human)): 104% | residual activity (FYN (human)): 85.7% | residual activity (IGF1R (human)): 75.9% | residual activity (LRRK2 (human)): 60.9% | residual activity (MAPK10 (human)): 89% | residual activity (MAPK13 (human)): 99.8% | residual activity (MAPK9 (human)): 92.2% | residual activity (MAPKAPK3 (human)): 92.7% | residual activity (MET (human)): 75.5% | residual activity (MINK1 (human)): 83.1% | residual activity (NEK2 (human)): 88.3% | residual activity (NTRK1 (human)): 92.6% | residual activity (PRKACG (human)): 87.9% | residual activity (PRKCB2 (human)): 95.5% | residual activity (PTK2 (human)): 95.1% | residual activity (RIPK2 (human)): 45.4% | residual activity (ROCK1 (human)): 95.9% | residual activity (ROS1 (human)): 91.2% | residual activity (RPS6KA2 KD1 KD2 (human)): 85.5% | residual activity (RPS6KA4 KD2 (human)): 94.5% | residual activity (SRPK3 (human)): 90.1% | residual activity (STK10 (human)): 24.5% | residual activity (STK38 (human)): 104% | residual activity (STK39 (human)): 97% | residual activity (TBK1 (human)): 78% | residual activity (TLK2 (human)): 93.9% | residual activity (TSSK1B (human)): 95.7% | residual activity (TTK (human)): 108% | residual activity (TYRO3 (human)): 96.7% | residual activity (ULK3 (human)): 77.3%
